Reference: patent US11465998B2, “Therapeutic compounds and methods of use thereof” (Regents of the University of Minnesota, priority 2019, dated 2022)
Entries after “also recorded” stand apart in the source; their conditions may differ.

Experiments:
Type in all cases: cell-based
[1] = test system: human peripheral blood mononuclear cells (PBMCs); assay: Multiplexed immunoassays for human cytokines in PBMCs
Protocol: (§1) Example 5: High-throughput screens in porcine blood: Curated compound collections were obtained from the Institute for Therapeutics Discovery & Development at the University of Minnesota. Compound transfers from source (80 nL of 10 mM stocks) to assay plates were performed using an Echo 550 acoustic liquid handler (Labcyte, Sunnyvale, Calif.). For most libraries, a target final concentration of 10 μM of compound (in a final volume of 80 μL for the assay described below) was achieved. Compound plates were hermetically sealed and stored at −80° C. until used. Fresh, heparin-anticoagulated porcine blood from healthy animals were obtained under USDA supervision from Midwest Research Swine, LLC (Glencoe, Minn.). 80 μL of hematocrit-enriched porcine blood (low-speed centrifugation, followed by resuspension in DMEM supplemented with 10% fetal bovine serum) was added to compound plates and incubated for 15 h. The following day, the plates were briefly centrifuged (100 g, 10 min), and supernatants were transferred using an automated ViaFlow 384 transfer device (Integra Biosciences Corp., Hudson, N.H.) to assay plates containing of 10^6 cells/mL of each of the following NF-κB/secreted alkaline phosphatase reporter cells suspended in HEK-Blue Detection Media: human IFN-α/β, human IFN-γ, human TNF-α/IL-1β (InvivoGen, San Diego, Calif.). NF-κB translocation was assayed spectrophotometrically using an alkaline phosphatase-specific chromogen (present in HEK-detection medium as supplied by InvivoGen) at 620 nm using a SpectraMax M4 multimode microplate reader (Molecular Devices, Sunnyvale, Calif.). Z′ factors were computed for each TLR/NOD-specific signals. Hits were defined as signals >4σ (in-plate standard deviations for test compounds above negative control means), were deconvoluted in full dose-response assays in human TLR-2/-3/-4/-5/-7/-8/-9 and NOD-1/NOD-2-specific reporter cells in liquid handler-assisted assay formats as described previously. Example 6: Murine knockout cell-lines: The following reagents were obtained through BEI Resources, NIAID, NIH: the microglial cell line derived from MAL/MyD88 double knockout Mice (NR-9904), and the macrophage cell line derived from TRIF/TRAM knockout mice (NR-9568). Example 7: Human NOD1/2-specific reporter gene assays (NF-κB induction), and TLR-2/-3/-4/-5/-7/-8/-9/STING/ISG counter-screens: The induction of NF-κB was quantified using human TLR-2/-3/-4/-5/-7/-8/-9/NOD-1/NOD-2/STING/ISG-specific, rapid-throughput, liquid handler-assisted reporter gene assays as previously described by us (Wu, W. et al. J. Med. Chem. 2010, 53, 3198-3213; Shukla, N. M. et al. J. Med. Chem. 2010, 53, 4450-4465; Agnihotri, G. et al. J. Med. Chem. 2011, 54, 1490-1510 and Ukani, R. et al. Bioorg. Med. Chem. Lett. 2012, 22, 293-295). […]

human whole blood = assay: Cytokine/chemokine induction in human whole blood
human NOD2 = target: T1, human NOD2 (Homo sapiens, UniProt Q9HC29); assay: human NOD2 specific reporter gene assay (NF-κB induction); conditions: for hNOD2-agonistic activity (in words): human NOD2 reporter gene assay; for EC50: human NOD2 specific reporter gene assay, arithmetic mean of quadruplicate samples, NA* indicates inactive under the tested conditions, read-out: hNOD2 Agonistic Activity (μM), EC50
T1 construct: host or cells: HEK293
T1 sequence (Q9HC29 whole entry): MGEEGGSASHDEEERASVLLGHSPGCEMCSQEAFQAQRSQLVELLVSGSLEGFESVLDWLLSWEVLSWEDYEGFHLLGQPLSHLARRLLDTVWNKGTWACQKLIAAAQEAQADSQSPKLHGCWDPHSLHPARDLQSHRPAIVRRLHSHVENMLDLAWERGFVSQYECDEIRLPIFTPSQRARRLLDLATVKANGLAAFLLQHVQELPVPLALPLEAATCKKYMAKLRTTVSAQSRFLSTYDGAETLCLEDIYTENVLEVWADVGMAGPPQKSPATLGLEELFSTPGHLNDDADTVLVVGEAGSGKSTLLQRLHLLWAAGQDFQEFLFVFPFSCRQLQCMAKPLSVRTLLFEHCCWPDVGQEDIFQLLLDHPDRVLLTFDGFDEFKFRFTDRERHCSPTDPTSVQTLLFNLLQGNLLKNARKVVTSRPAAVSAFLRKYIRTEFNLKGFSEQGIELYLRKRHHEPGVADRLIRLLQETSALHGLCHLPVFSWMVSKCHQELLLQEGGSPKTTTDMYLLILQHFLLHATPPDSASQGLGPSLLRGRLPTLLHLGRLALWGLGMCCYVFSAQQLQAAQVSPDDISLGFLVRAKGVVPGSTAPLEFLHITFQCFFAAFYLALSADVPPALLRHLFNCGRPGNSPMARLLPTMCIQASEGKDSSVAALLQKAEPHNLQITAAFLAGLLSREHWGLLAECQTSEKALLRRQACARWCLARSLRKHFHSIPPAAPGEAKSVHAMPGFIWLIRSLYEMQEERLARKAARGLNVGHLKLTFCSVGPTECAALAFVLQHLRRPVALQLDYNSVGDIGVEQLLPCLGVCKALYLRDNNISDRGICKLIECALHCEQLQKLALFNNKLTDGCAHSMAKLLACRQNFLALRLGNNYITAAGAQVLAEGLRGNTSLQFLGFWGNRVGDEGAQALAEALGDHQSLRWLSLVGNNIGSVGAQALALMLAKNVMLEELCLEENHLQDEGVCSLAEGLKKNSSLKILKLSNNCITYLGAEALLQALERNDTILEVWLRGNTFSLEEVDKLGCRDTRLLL
Protocol: as §1, with “293-295). HEK293 cells stably co-transfected with the appropriate hTLR and secreted alkaline phosphatase (sAP) were maintained in HEK-Blue™ Selection medium. Stable expression of secreted alkaline phosphatase (sAP) under control of NF-κB/AP-1/IRF promoters is inducible by appropriate innate immune stimuli, and extracellular sAP in the supernatant is proportional to NF-κB/IRF induction. Reporter cells were incubated at a density of ˜10^5 cells/ml in a volume of 80 μl/well, in 384-well, flat-bottomed, cell culture-treated microtiter plates in the presence of graded concentrations of stimuli. sAP was assayed spectrophotometrically using an alkaline phosphatase-specific chromogen (present in HEK-detection medium as supplied by InvivoGen) at 620 nm. Example 8: Multiplexed immunoassays for human cytokines: Fresh human peripheral blood mononuclear cells (hPBMC) were isolated from human blood obtained by venipuncture in Cell Preparation Tubes (CPT, Beckton-Dickinson) with informed consent and as per guidelines approved by the University of Minnesota Human Subjects Experimentation Committee. Aliquots of PBMCs or THP-1 cells (10^5 cells in 100 μL/well) were stimulated for 16 h with graded concentrations of test compounds.” for “293-295).”

[2] = test system: microglial cell line derived from MAL/MyD88 double knockout Mice (NR-9904); assay: Cytokine/chemokine induction in MAL/MyD88 double-knockout cell line; conditions: MAL/MyD88 double-knockout murine cell line
Protocol: (§2) Cytokine induction by 7e and 7f was examined in murine-derived cell lines. […] The absence of activity was not due to extensive plasma protein binding by re-examining under near-serum-free conditions.
(§3) Example 5: High-throughput screens in porcine blood: Curated compound collections were obtained from the Institute for Therapeutics Discovery & Development at the University of Minnesota. Compound transfers from source (80 nL of 10 mM stocks) to assay plates were performed using an Echo 550 acoustic liquid handler (Labcyte, Sunnyvale, Calif.). For most libraries, a target final concentration of 10 μM of compound (in a final volume of 80 μL for the assay described below) was achieved. Compound plates were hermetically sealed and stored at −80° C. until used. Fresh, heparin-anticoagulated porcine blood from healthy animals were obtained under USDA supervision from Midwest Research Swine, LLC (Glencoe, Minn.). 80 μL of hematocrit-enriched porcine blood (low-speed centrifugation, followed by resuspension in DMEM supplemented with 10% fetal bovine serum) was added to compound plates and incubated for 15 h. […] NF-κB translocation was assayed spectrophotometrically using an alkaline phosphatase-specific chromogen (present in HEK-detection medium as supplied by InvivoGen) at 620 nm using a SpectraMax M4 multimode microplate reader (Molecular Devices, Sunnyvale, Calif.). […] Example 7: Human NOD1/2-specific reporter gene assays (NF-κB induction), and TLR-2/-3/-4/-5/-7/-8/-9/STING/ISG counter-screens: The induction of NF-κB was quantified using human TLR-2/-3/-4/-5/-7/-8/-9/NOD-1/NOD-2/STING/ISG-specific, rapid-throughput, liquid handler-assisted reporter gene assays as previously described by us (Wu, W. et al. J. Med. Chem. 2010, 53, 3198-3213; Shukla, N. M. et al. J. Med. Chem. 2010, 53, 4450-4465; Agnihotri, G. et al. J. Med. Chem. 2011, 54, 1490-1510 and Ukani, R. et al. Bioorg. Med. Chem. Lett. 2012, 22, 293-295). […]

[3] = test system: RAW264.7 murine macrophages; assay: Cytokine/chemokine induction in wild-type RAW264.7 murine macrophages (multiplexed immunoassay); conditions: wild-type RAW264.7 murine macrophage cell line
Protocol: as §2, §3

[4] = test system: macrophage cell line derived from TRIF/TRAM knockout mice (NR-9568); assay: Cytokine/chemokine induction in TRIF/TRAM double-knockout cell line; conditions: TRIF/TRAM double-knockout murine cell line
Protocol: as §2, §3

Row | hNOD2-agonistic activity (in words) (human NOD2) | EC50 (human NOD2) | SMILES | further results
1 | – | – | CCOC(=O)c1cc(-n2cnc3ccccc32)cs1 [Compound 1, Ethyl 4-(1H-benzo[d]imidazol-1-yl)thiophene-2-carboxylate] | induction of chemokines and cytokines [1]: None of the small molecules (including 1, as well as the optimized, equipotent analogues 7e and 7f) showed any activity; induction of cytokines and chemokines (human whole blood): None of the small molecules (including 1, as well as the optimized, equipotent analogues 7e and 7f) showed any activity
2 | weak activity | 6.57 µM | CCCCCc1nc2ccccc2n1-c1csc(C(=N)N)c1 [Compound 13b, 4-(2-Pentyl-1H-benzo[d]imidazol-1-yl)thiophene-2-carboximidamide] | –
3 | weakly active | 7.39 µM | CCCCCc1nc2ccccc2n1-c1csc(C(N)=O)n1 [Compound 14, 4-(2-Pentyl-1H-benzo[d]imidazol-1-yl)thiazole-2-carboxamide] | –
4 | inactive | – | NC(=O)c1cc(-n2cnc3cnccc32)cs1 [Compound 18a, 4-(1H-Imidazo[4,5-c]pyridin-1-yl)thiophene-2-carboxamide] | –
5 | weakly active | 5.65 µM | CCCCc1nc2cnccc2n1-c1csc(C(N)=O)c1 [Compound 18b, 4-(2-Butyl-1H-imidazo[4,5-c]pyridin-1-yl)thiophene-2-carboxamide] | –
6 | inactive | – | NC(=O)c1cc(-n2cnc3c(N)nccc32)cs1 [Compound 19a, 4-(4-Amino-1H-imidazo[4,5-c]pyridin-1-yl)thiophene-2-carboxamide] | –
7 | weakly active | 4.08 µM | CCCCc1nc2c(N)nccc2n1-c1csc(C(N)=O)c1 [Compound 19b, 4-(4-Amino-2-butyl-1H-imidazo[4,5-c]pyridin-1-yl)thiophene-2-carboxamide] | –
8 | – | – | CCCCOC(=O)[C@@H](CCC(N)=O)NC(=O)[C@H](C)NC(=O)[C@@H](C)O[C@H]1[C@H](O)[C@@H](CO)OC(O)[C@@H]1NC(C)=O (stereo partly drawn) [murabutide, N-Acetyl-muramyl-LAlanyl-D-Glutamin-n-butyl-ester, reference compound] | induction of chemokines and cytokines [1]: induced significant levels of cytokines and chemokines; cytokine and chemokine induction [2]: abrogation of responsiveness; induction of chemokines and proinflammatory cytokines [3]: potently immunostimulatory; also recorded: induction of chemokines and cytokines; cytokine and chemokine induction [4]: abrogation of responsiveness; induction of cytokines and chemokines (human whole blood): induced significant levels of cytokines and chemokines
